Laboratory results as given in patent US7250157B2, “Dermatological compositions and methods” (Applied Genetics Incorporated Dermatics, priority 1996, dated 2007).
Where “and” joins values, the source holds several entries; their conditions need not be identical. Equal values may be shown once. Read-outs that look alike come from different tables or passages of the source.

Key:
[1] = test system: Cloudman S91 mouse melanoma cell line; experiment: Melanin content of S91 cells after treatment with test compound; assay type: cell-based; settings: for melanogenesis in S91 cells (in words): PKC inhibitors
Method: The Cloudman S91 mouse melanoma cell line was obtained from American Type Culture Collection (ATCC). […] For testing propylene glycol and analogues for induction of melanogenesis, S91 cells were plated at 10^5 cells/35 mm dish in 10% calf serum. […] Cells were cultured for 6 days at 37° C. in 5% CO2 in a humidified incubator. Following this treatment period, cells were examined microscopically and the portion of dedifferentiated and differentiated cells was estimated.
Following this microscopic examination, cells were detached from dishes by trypsin. The time required for detachment by trypsin was recorded as an additional indicator of the phenotypic effects of test compounds. For each treatment, a subsample of cells was counted to determine the effects of treatment compounds on cellular proliferation. The remainder of cells were used for determination of melanin content. […] Absorbance of standards and samples was measured at 475 nm. Melanin was expressed as pg melanin/cell.

[2] = test system: American short-haired guinea pigs; experiment: Topical melanogenesis (pigmentation rating) in guinea pigs; assay type: in vivo, guinea pig; set-up: Pigmentation Rating / Pigmentation Rating Background Corrected: scale not given here; settings: for relative melanogenesis rating (mean ±SE), scale 0-4: 25 μl twice per day for 5 days, rated two weeks after
Method: Compounds were tested for melanogenic activity in vivo by application to American short-haired guinea pigs. Treatment sites were created by removal of fur using Nair® brand depilatory. In the Table, the numbers presented are the relative melanogenesis rating (mean ±SE), and are arranged according to the relative location on the animal, with the head being to the left and the tail being to the right. Propylene glycol (PG=13.6M), 2,3-butanediol (2,3-BD=10.95M), and 1,2-cis-cyclopentanediol (1,2-cs-CPD=10.7M) were applied as full strength solutions. 3,3-dimethyl-1,2-butanediol (3,3-M-1,2-BD) was applied as a 4M solution dissolved in ethanol. Two weeks following cessation of treatments, the degree of pigmentation was subjectively rated according to the following scale:
In order to minimize the effects of dimunition of response from head to tails of animals, all future experiments were done using only treatment spots located towards the tails of animals (c and d in Table 7). Deemed as additionally beneficial, in this area of the animal differences of responsiveness to strong and weak inducers of pigmentation, as deduced from cell culture, were greatest. […] Pigmentation ratings were corrected for background (control treatment spots), normalized to 1M to account for the different amounts of each agent applied, and then normalized to results for 1,2-PG (Table 8). […] It is anticipated that further improvements in formulation will additionally improve responsiveness to 5-NBene-2,2-DM and other compounds in this invention.
In FIG. 5, a, b, c and d indicate treatment spots that transverse the anterior-posterior axis along the backs of guinea pigs.

[3] = test system: Tyrosinase in normal human epidermal melanocytes (NHEM); experiment: Tyrosinase in NHEM (in situ, cellular, extracellular particulate, media); assay type: cell-based
Method: Tyrosinase was measured in normal human epidermal melanocytes (NHEM) using procedures identical to those described for S91 cells (Example 6), […], 1600×g, or 17,300×g for analysis of tyrosinase activity in the extracellular exported melanosomal particulate fraction, and in the resultant supernatant media fraction. In some cases (Table 11), tyrosinase was also measured by an in situ assay wherein radiolabelled tyrosine was added directly to freshly replaced media of NHEM for a period of 24 hrs following a 5 day treatment period (Abdel-Malek, et al., 1992, J. Cell. Physiol. 150:416-425). […] Both 5 mM 5-NBene-2,2-DM and 25 mM 3,3-M-1,2-BD induced more tyrosinase in each of these assays and fractions than did 1,2-PG. IBMX (3-isobutyl-1-methyl-xanthine) provided as a positive control, induced as much tyrosinase as 5 mM 5-NBene-2,2-DM in the in situ assay, but less in cellular, extracellular particulate and media fractions (Table 11).

[4] = test system: tyrosinase activity in S91 mouse melanoma cells; experiment: Induction of tyrosinase activity in S91 cells
Method: Compounds were examined for their ability to induce tyrosinase activity in S91 mouse melanoma cells. […] Following treatments, cells were trypsinized, counted by Coulter, pelleted by centrifugation at 1000×g, and analyzed for tyrosinase activity using modifications of previously described procedures (Pomerantz, S. H., 1966, J. Biol. Chem. 241:161-168; Jara, et al., 1988, Pigment Cell Res. 1: 332-339.). Briefly, cell pellets were solubilized by sonicating for 5 seconds in 600 ul 50 mM phosphate buffer pH 6.8 containing 0.5% Triton-X100, followed by vortexing, incubation on ice for 30 min, and then revortexing. From this, 200 ul aliquots were combined with 200 ul of reaction mixture containing either 75 uM tyrosine, 75 uM L-Dopa, and 2 uCi L-[3,5-^3H]Tyrosine in 50 mM NaPO4 pH 6.8 (L-Dopa+), or, 75 uM tyrosine, and 2 uCi L-[3,5-^3H]Tyrosine in 50 mM NaPO4 pH 6.8 (L-Dopa−) and incubated 1 hr at 37° C. Reactions were stopped by addition of 400 ul 10% activated charcoal in 0.1N HCl and incubation on ice for 15 min. This mixture was centrifuged at 17,300×g for 5 min, and 400 ul supernatant was then filtered through a 0.22 uM GV Durapore centifugal filter unit (Millipore) by centrifuging at 17,300×g for 5 min. Filtrate was added to 4 ml Fisher Plus scintillation fluid and counted on a Hewlett Packard scintillation counter. Tyrosinase activity was calculated as dpm/hr/ug protein and dpm/hr/10^3 cells. Each sample was analyzed with and without L-Dopa, a necessary cofactor for tyrosinase (Pomerantz, S. H., 1966, J. Biol. Chem. 241:161-168; McLane, et al., 1987, Biochem. Biophys. Res. Commun. 145:719-725). All reported tyrosinase values are exclusive of counts that occurred in buffer blanks and L-dopa negative aliquots. Protein was determined on aliquots of cell lysate, extracellular particulate lysate or media by the Bradford Coomassie Blue method (Bradford, 1967, Anal. Biochem. 72:248-254) using Bio-Rad Protein Assay Kit I.

[5] = range of concentrations up to a toxic dose
[6] = No Penetration Enhancer, concentrations as E85
[7] = 5 day treatment, concentrations as E130
[8] = pair of replicates, concentrations as E130
[9] = 300 mM PG-1,2, 25 mM 3,3-M-1,2-BD, 50 mM 1,2-cs-CPD, 5 mM 5-NBene-2,2-DM, 0.5 mM 2,3-Pyd, 0.1 mM IBMX, mean ±SE

With CCCCCCCCCCCCN1CCCCCC1=O [Azone®] the “melanogenesis in S91 cells (≧2-fold increase = significant)” value [1, 5] was “did not induce significant (≧2-fold increase) melanogenesis”.

In the case of OC1OCCOC1O (stereo not drawn) [1,4-Dioxane-2,3-Diol, 1,4-dioxane-2,3-diol], the “Concentration Required for ≧2-fold Melanin Induction in S91 Cells” value [1] is reported as 500 µM.

For CC(CO)CO [2-M-1,3-PG, 2-Methyl-1,3-Propanediol], the “Concentration Required for ≧2-fold Melanin Induction in S91 Cells” value [1] was 50000 µM, the “Pigmentation Rating Normalized to 1,2-PG” value [2, 6] was 2.9 ± 0.4 and the “Pigmentation Rating Normalized to 1M” value [2, 6] was 0.044 ± 0.006. The “Pigmentation Rating Background Corrected” value ([2]; No Penetration Enhancer, corrected for Nair control, concentrations as E85) was 0.50 ± 0.07, the “Pigmentation Rating” value ([2]; No Penetration Enhancer, sites c and d, 13.61M 1,2-PG, 11.0M 2,3-M-2,3-BD, 11.3M 2-M-1,3-PG, 8.7M 1,2-cs-CPD, 4.0M 3,3-M-1,2-BD) was 0.58 ± 0.08 and the “melanogenesis in guinea pigs (in words)” value ([2]; same relative body position) was “only slightly better melanogenic agents than propylene glycol”. For the same molecule, the “relative melanogenesis rating (mean ±SE), scale 0-4” value ([2]; site a (head), PG 13.6M, 2,3-BD 10.95M, 1,2-cs-CPD 10.7M full strength, 3,3-M-1,2-BD 4M in ethanol) was 1.25 ± 0.52 and the “relative melanogenesis rating (mean ±SE), scale 0-4” value ([2]; site c, full strength, 3,3-M-1,2-BD 4M in ethanol) was 0.58 ± 0.08^2.

With CCCC[N+](CCCC)(CCCC)CCCC.[Cl-] [tetrabutylammonium chloride] the “melanogenesis in S91 cells (≧2-fold increase = significant)” value [1] was “did not induce significant (≧2-fold increase) melanogenesis”.

O=CC[C@H](O)[C@H](O)CO [2-deoxy-D-ribose] was tested, and the “melanogenesis in S91 cells (≧2-fold increase = significant)” value [1, 5] was “did not induce significant (≧2-fold increase) melanogenesis”.

For CNC[C@H](O)[C@@H](O)[C@H](O)[C@H](O)CO [N-methyl-D-glucamine], the “melanogenesis in S91 cells (≧2-fold increase = significant)” value [1, 5] was “did not induce significant (≧2-fold increase) melanogenesis”.

O=c1[nH]cc(CO)c(=O)[nH]1 [hydroxymethyl uracil] was tested, and the “melanogenesis in S91 cells (≧2-fold increase = significant)” value [1, 5] was “did not induce significant (≧2-fold increase) melanogenesis”.

For CCCCCCCC/C=C\CCCCCCCC(=O)O [oleic acid], the “melanogenesis in S91 cells (≧2-fold increase = significant)” value [1, 5] was “did not induce significant (≧2-fold increase) melanogenesis”.

For CC1CNCCN1S(=O)(=O)c1cccc2cnccc12 (stereo not drawn) [H7, 1-[5-isoquinolinyl-sulfonyl]-2-methyl-piperazine, reference compound], the “effect on melanogenesis induced by propylene glycol in S91 cells” value [1] was “enhanced melanogenesis induced by propylene glycol” and the “melanogenesis in S91 cells (in words)” value [1] was “induced melanogenesis”.

With C[C@]12CC[C@@H]3c4ccc(O)cc4CC[C@H]3[C@@H]1CC[C@@H]2O [β-Estradiol, β-estradiol, reference compound] the “Concentration Required for ≧2-fold Melanin Induction in S91 Cells” value [1] was 500 µM.

In the case of O=C(O)C(O)C(O)C(=O)O (stereo not drawn) [tartaric acid], the “melanogenesis in S91 cells (≧2-fold increase = significant)” value [1, 5] is reported as “did not induce significant (≧2-fold increase) melanogenesis”.

For OCC1CC2CCC1C2 (stereo not drawn) [2-NBaneM, 2-Norbornanemethanol], the “Tyrosinase Cellular” value ([3]; Black-Neonatal-NHEM, 1 mM) was 10863 dpm/hr/10^3 cells, the “Tyrosinase Cellular relative to Control” value ([3]; Black-Neonatal-NHEM, 1 mM) was 1.10 X and the “Tyrosinase In Situ” value ([3]; Black-Neonatal-NHEM, 1 mM) was 12.1 dpm/hr/10^3 cells. The “Tyrosinase In Situ relative to Control” value ([3]; Black-Neonatal-NHEM, 1 mM) was 0.97 X, the “Tyrosinase Media relative to Control” value ([3]; Black-Neonatal-NHEM, 1 mM) was 1.68 X and the “Tyrosinase Media” value ([3]; Black-Neonatal-NHEM, 1 mM, media from 1 day treatment period) was 18.7 dpm/hr/10^3 cells. The “Tyrosinase Cellular” value ([3]; Black-Neonatal-NHEM, 5 mM) was 17397 dpm/hr/10^3 cells, the “Tyrosinase Cellular relative to Control” value ([3]; Black-Neonatal-NHEM, 5 mM) was 1.77 X and the “Tyrosinase In Situ” value ([3]; Black-Neonatal-NHEM, 5 mM) was 12.8 dpm/hr/10^3 cells. The “Tyrosinase In Situ relative to Control” value ([3]; Black-Neonatal-NHEM, 5 mM) was 1.02 X, the “Tyrosinase Media relative to Control” value ([3]; Black-Neonatal-NHEM, 5 mM) was 3.36 X and the “Tyrosinase Media” value ([3]; Black-Neonatal-NHEM, 5 mM, media from 1 day treatment period) was 37.3 dpm/hr/10^3 cells. The “Tyrosinase Cellular” value ([3]; White-Adult-NHEM, 1 mM) was 15257 dpm/hr/10^3 cells, the “Tyrosinase Cellular relative to Control” value ([3]; White-Adult-NHEM, 1 mM) was 1.09 X and the “Tyrosinase In Situ” value ([3]; White-Adult-NHEM, 1 mM) was 7.05 dpm/hr/10^3 cells. The “Tyrosinase In Situ relative to Control” value ([3]; White-Adult-NHEM, 1 mM) was 1.27 X, the “Tyrosinase Media relative to Control” value ([3]; White-Adult-NHEM, 1 mM) was 1.11 X and the “Tyrosinase Media” value ([3]; White-Adult-NHEM, 1 mM, media from 1 day treatment period) was 29.2 dpm/hr/10^3 cells. The “Tyrosinase Cellular” value ([3]; White-Adult-NHEM, 5 mM) was 16077 dpm/hr/10^3 cells, the “Tyrosinase Cellular relative to Control” value ([3]; White-Adult-NHEM, 5 mM) was 1.15 X and the “Tyrosinase In Situ” value ([3]; White-Adult-NHEM, 5 mM) was 6.18 dpm/hr/10^3 cells. For the same molecule, the “Tyrosinase In Situ relative to Control” value ([3]; White-Adult-NHEM, 5 mM) was 1.11 X, the “Tyrosinase Media relative to Control” value ([3]; White-Adult-NHEM, 5 mM) was 1.33 X and the “Tyrosinase Media” value ([3]; White-Adult-NHEM, 5 mM, media from 1 day treatment period) was 48.1 dpm/hr/10^3 cells. For the same molecule, the “induction of tyrosinase in S91 cells compared with 5-NBene-2,2-DM (FIG. 2)” value [4] was “Lesser induction”.

OC1CCCC(O)C1 (stereo not drawn) [1,3-cyclohexanediol] was tested, and the “melanogenesis in S91 cells (≧2-fold increase = significant)” value [1, 5] was “did not induce significant (≧2-fold increase) melanogenesis”.

CC(C)O [2-propanol] was tested, and the “melanogenesis in S91 cells (≧2-fold increase = significant)” value [1, 5] was “did not induce significant (≧2-fold increase) melanogenesis”.

In the case of CC(C)Cn1c(=O)n(C)c(=O)c2[nH]cnc21 [IBMX, 3-isobutyl-1-methylxanthine, reference compound], the “Tyrosinase In Situ” value ([3]; 5 day treatment, 300 mM 1,2-PG, 25 mM 3,3-M-1,2-BD, 5 mM 5-NBene-2,2-DM, 0.1 mM IBMX) is reported as 25.3 dpm/hr/10^3 Cells and 26.1 dpm/hr/10^3 Cells, the “Tyrosinase 200 g Partic” value [3, 7] is reported as 2189 dpm/hr/10^3 Cells and 1834 dpm/hr/10^3 Cells and the “Tyrosinase Cellular” value [3, 7] is reported as 10910 dpm/hr/10^3 Cells and 11737 dpm/hr/10^3 Cells. The “Tyrosinase 17300 g Partic” value ([3]; Post 200 X g, 5 day treatment, concentrations as E130) was 220 dpm/hr/10^3 Cells and 260 dpm/hr/10^3 Cells, the “Tyrosinase Media” value ([3]; Post 17300 X g, 5 day treatment, concentrations as E130) was 2698 dpm/hr/10^3 Cells and 2935 dpm/hr/10^3 Cells and the “Tyrosinase 200 g Partic, relative to controls (in parentheses)” value [3, 8] was “(5.86X)”. The “Tyrosinase 17300 g Partic, relative to controls (in parentheses)” value [3, 8] was “(2.10X)”, the “Tyrosinase Cellular, relative to controls (in parentheses)” value [3, 8] was “(1.11X)” and the “Tyrosinase In Situ, relative to controls (in parentheses)” value [3, 8] was “(1.62X)”. The “Tyrosinase Media, relative to controls (in parentheses)” value [3, 8] was “(1.81X)”, the “Tyrosinase dpm/hr 10^3 Cells” value [4, 9] was 765 ± 53 dpm/hr/10^3 Cells and the “Tyrosinase dpm/hr ug Protein” value [4, 9] was 2161 ± 41 dpm/hr/ug Protein.

For 1-propanol, the “melanogenesis in S91 cells (≧2-fold increase = significant)” value [1, 5] was “did not induce significant (≧2-fold increase) melanogenesis”.

For CCCCCCCCCCCCC/C=C/[C@@H](O)[C@@H](N)CO [D-sphingosine, reference compound], the “effect on melanogenesis induced by propylene glycol in S91 cells” value [1] was “enhanced melanogenesis induced by propylene glycol” and the “melanogenesis in S91 cells (in words)” value [1] was “induced melanogenesis”.

For CC(O)(CO)c1ccccc1 (stereo not drawn) [2-phenyl-1,2-propanediol], the “melanogenesis in S91 cells (≧2-fold increase = significant)” value [1, 5] was “did not induce significant (≧2-fold increase) melanogenesis”.

In the case of O=C1O[C@H]([C@@H](O)CO)C(O)=C1O [ascorbic acid], the “melanogenesis in S91 cells (≧2-fold increase = significant)” value [1, 5] is reported as “did not induce significant (≧2-fold increase) melanogenesis”.

O[C@@H]1CCC[C@H]1O (relative stereo) [1,2-trans-Cyclopentanediol, 1,2-trans-cyclopentanediol] was tested, and the “Concentration Required for ≧2-fold Melanin Induction in S91 Cells” value [1] was 50000 µM.

For CC(C)[C@@H]1CC[C@@H](C)C[C@H]1O [(1R,2S,5R)-(−)-menthol, (1R,2S,5R)-2-isopropyl-5-methylcyclohexanol], the “Fold Induction of Tyrosinase Relative to Controls” value ([4]; 0.5 mM (Table 19)) was 2.0X and the “Fold Induction of Tyrosinase Relative to Controls” value ([4]; 1 mM (Table 19)) was 1.3X.
